# Tested on: Murine L929 cells
# Test: Necroptosis inhibition assay in L929 cells (mTNFα + zVAD, Sytox Green)
# Format: cell-based
# Conditions: Mus musculus, 10 ng/ml mTNFα and 20 μM zVAD, 6 hours, Sytox Green fluorescence
# Method: Murine L929 cells (ATCC-CCL-1) were seeded at 10,000 cells/well in a 96-well plate. Cells were treated 48 hours after seeding with 10 ng/ml mTNFα (R&D Systems) and 20 μM zVAD (ChemShuttle) in the presence of different concentrations of compounds ranging from […] to 0.01 μM. Cells treated with 0.1% DMSO or cells treated with TNFα+zVAD were used as control and vehicle respectively.
# Assay plates containing cells were incubated for 6 hours at 37° C. and 5% CO2. Necroptosis was assessed using Sytox Green Nucleic Acid Stain (Invitrogen). After incubation, 100 μL of Sytox dye at 2 μM (2×) diluted in HBSS 1× was added in each well and incubated for 15 min at room temperature. Fluorescence (500ex/530em) was recorded using the Cytation 5 microplate reader (Biotek).
# Percentage of necroptosis inhibition was calculated as the percent compared to control and vehicle conditions which correspond to 100% and 0% respectively. The half-maximum necroptosis inhibition (IC50) levels were calculated using GraphPad Prism software and are shown in Table 3 (NT represents compound not tested).
row,SMILES,IC50
1,"COc1ccc(-c2ccc3c(Nc4ccc(C5CCN(C)CC5)c(F)c4)ccnc3c2)cc1 [Compound 2, N-(3-fluoro-4-(1-methylpiperidin-4-yl)phenyl)-7-(4-methoxyphenyl)quinolin-4-amine]",> 10 µM
2,"CN1CCC(c2ccc(Nc3ccnc4cc(-c5ccccc5F)ccc34)nc2)CC1 [Compound 3, 7-(2-fluorophenyl)-N-(5-(1-methylpiperidin-4-yl)pyridin-2-yl)quinolin-4-amine]",> 10 µM
3,"CN1CCC(c2ccc(Nc3ccc4nccc(Nc5ccc6scnc6c5)c4c3)cc2F)CC1 [Compound 4, N4-(benzo[d]thiazol-5-yl)-N6-(3-fluoro-4-(1-methylpiperidin-4-yl)phenyl)quinoline-4,6-diamine]",> 10 µM
4,"CN1CCC(c2ccc(Nc3ccnc4cc(-c5ccccc5F)ccc34)cc2F)CC1 [Compound 5, N-(3-fluoro-4-(1-methylpiperidin-4-yl)phenyl)-7-(2-fluorophenyl)quinolin-4-amine]",> 10 µM
5,"CN1CCC(c2ccc(Nc3ccnc4cc(-c5ccccn5)ccc34)cc2F)CC1 [Compound 6, N-(3-fluoro-4-(1-methylpiperidin-4-yl)phenyl)-7-(pyridin-2-yl)quinolin-4-amine]",> 10 µM
6,"COc1ccc(-c2ccc3c(Nc4ccc(C5CCN(C)CC5)cn4)ccnc3c2)cc1 [Compound 7, 7-(4-methoxyphenyl)-N-(5-(1-methylpiperidin-4-yl)pyridin-2-yl)quinolin-4-amine]",> 10 µM
7,"CN1CCC(c2ccc(Nc3ccnc4cc(-c5ccccn5)ccc34)nc2)CC1 [Compound 8, N-(5-(1-methylpiperidin-4-yl)pyridin-2-yl)-7-(pyridin-2-yl)quinolin-4-amine]",> 10 µM
8,"CN1CCC(c2ccc(Nc3ccc4nccc(Nc5ccc6scnc6c5)c4c3)nc2)CC1 [Compound 9, N4-(benzo[d]thiazol-5-yl)-N6-(5-(1-methylpiperidin-4-yl)pyridin-2-yl)quinoline-4,6-diamine]",> 10 µM
9,"Cc1ccc(Oc2ccnc3cc(-c4ccc(CN5CCN(C)CC5)c(F)c4)ccc23)cc1 [Compound 10, 7-(3-fluoro-4-((4-methylpiperazin-1-yl)methyl)phenyl)-4-(p-tolyloxy)quinoline]",> 10 µM
10,"c1cc(Nc2ccc3scnc3c2)c2cc(-c3ccc(N4CCOCC4)cc3)ccc2n1 [Compound 18, N-(6-(4-morpholinophenyl)quinolin-4-yl)benzo[d]thiazol-5-amine]",< 10 µM
11,"COc1ccc(Nc2ccnc3ccc(-c4ccc(N5CCN(C)CC5)cc4)cc23)cc1OC [Compound 19, N-(3,4-dimethoxyphenyl)-6-(4-(4-methylpiperazin-1-yl)phenyl)quinolin-4-amine]",> 10 µM
12,"CN1CCN(c2ccc(-c3ccc4nccc(Nc5ccc(Cl)c(Cl)c5)c4c3)cc2)CC1 [Compound 20, N-(3,4-dichlorophenyl)-6-(4-(4-methylpiperazin-1-yl)phenyl)quinolin-4-amine]",< 10 µM
13,"CN1CCN(c2ccc(-c3ccc4nccc(Nc5ccc6scnc6c5)c4c3)cn2)CC1 [Compound 24, N-(6-(6-(4-methylpiperazin-1-yl)pyridin-3-yl)quinolin-4-yl)benzo[d]thiazol-5-amine]",< 10 µM
14,"c1cc(Nc2ccc3scnc3c2)c2cc(-c3ccc(N4CCCCC4)nc3)ccc2n1 [Compound 25, N-(6-(6-(piperidin-1-yl)pyridin-3-yl)quinolin-4-yl)benzo[d]thiazol-5-amine]",> 10 µM
15,"Nc1nc2cc(Nc3ccnc4ccc(-c5ccc(CN6CCCC6)cc5F)cc34)ccc2s1 [Compound 26, N5-(6-(2-fluoro-4-(pyrrolidin-1-ylmethyl)phenyl)quinolin-4-yl)benzo[d]thiazole-2,5-diamine]",> 10 µM
16,"c1cc(Nc2ccc3scnc3c2)c2cc(-c3ccc(N4CCCC4)cc3)ccc2n1 [Compound 30, N-(6-(4-(pyrrolidin-1-yl)phenyl)quinolin-4-yl)benzo[d]thiazol-5-amine]",> 10 µM
17,"COc1ccc(Nc2ccnc3ccc(-c4ccc(CN5CCN(C)CC5)cc4F)cc23)cc1OC [Compound 32, N-(3,4-dimethoxyphenyl)-6-(2-fluoro-4-((4-methylpiperazin-1-yl)methyl)phenyl)quinolin-4-amine]",> 10 µM
18,"CN1CCN(Cc2ccc(-c3ccc4nccc(Nc5ccc(Cl)c(F)c5)c4c3)c(F)c2)CC1 [Compound 33, N-(4-chloro-3-fluorophenyl)-6-(2-fluoro-4-((4-methylpiperazin-1-yl)methyl)phenyl)quinolin-4-amine]",< 10 µM

row,SMILES,IC50
1,"CC(C)(C)OC(=O)N1CCN(Cc2ccc(-c3ccc4nccc(Nc5ccc6scnc6c5)c4c3)c(F)c2)CC1 [Compound 38, tert-butyl 4-(4-(4-(benzo[d]thiazol-5-ylamino)quinolin-6-yl)-3-fluorobenzyl)piperazine-1-carboxylate]",< 10 µM
2,"N#Cc1cc(-c2ccc3nccc(Nc4ccc5scnc5c4)c3c2)ccc1N1CCCC1 [Compound 39, 5-(4-(benzo[d]thiazol-5-ylamino)quinolin-6-yl)-2-(pyrrolidin-1-yl)benzonitrile]",> 10 µM
3,"Fc1cc(CN2CCC(C(F)(F)F)CC2)ccc1-c1ccc2nccc(Nc3ccc4scnc4c3)c2c1 [Compound 42, N-(6-(2-fluoro-4-((4-(trifluoromethyl)piperidin-1-yl)methyl)phenyl)quinolin-4-yl)benzo[d]thiazol-5-amine]",< 10 µM
4,"c1cc(Nc2ccc3scnc3c2)c2cc(-c3ccc(OCCN4CCCCC4)cc3)ccc2n1 [Compound 44, N-(6-(4-(2-(piperidin-1-yl)ethoxy)phenyl)quinolin-4-yl)benzo[d]thiazol-5-amine]",< 10 µM
5,"Fc1ccc(CN2CCCCC2)cc1-c1ccc2nccc(Nc3ccc4scnc4c3)c2c1 [Compound 55, N-(6-(2-fluoro-5-(piperidin-1-ylmethyl)phenyl)quinolin-4-yl)benzo[d]thiazol-5-amine]",< 10 µM
6,"Fc1ccc(CN2CCCCC2)cc1-c1ccc2c(Nc3ccc4scnc4c3)ccnc2c1 [Compound 56, N-(7-(2-fluoro-5-(piperidin-1-ylmethyl)phenyl)quinolin-4-yl)benzo[d]thiazol-5-amine]",> 10 µM
7,"CC(C)(C)OC(=O)N1C2CCC1CN(Cc1ccc(-c3ccc4nccc(Nc5ccc6scnc6c5)c4c3)c(F)c1)C2 [Compound 57, tert-butyl 3-(4-(4-(benzo[d]thiazol-5-ylamino)quinolin-6-yl)-3-fluorobenzyl)-3,8-diazabicyclo[3.2.1]octane-8-carboxylate]",> 10 µM
8,"CC(C)(C)OC(=O)N1C2CCC1CN(Cc1ccc(-c3ccc4c(Nc5ccc6scnc6c5)ccnc4c3)c(F)c1)C2 [Compound 58, tert-butyl 3-(4-(4-(benzo[d]thiazol-5-ylamino)quinolin-7-yl)-3-fluorobenzyl)-3,8-diazabicyclo[3.2.1]octane-8-carboxylate]",< 10 µM
9,"O=C(CO)N1CCC(c2ccc(-c3ccc4nccc(Nc5ccc6scnc6c5)c4c3)cc2)CC1 [Compound 239, 1-(4-(4-(4-(benzo[d]thiazol-5-ylamino)quinolin-6-yl)phenyl)piperidin-1-yl)-2-hydroxyethan-1-one]",< 1 µM
10,"c1cc(Nc2ccc3scnc3c2)c2cc(-c3ccc(C4CCNCC4)cc3)ccc2n1 [Compound 240, N-(6-(4-(piperidin-4-yl)phenyl)quinolin-4-yl)benzo[d]thiazol-5-amine]",> 1 µM
11,"O=C(c1ccc(-c2ccc3nccc(Nc4ccc5scnc5c4)c3c2)c(F)c1)N1CCCC1 [Compound 241, (4-(4-(benzo[d]thiazol-5-ylamino)quinolin-6-yl)-3-fluorophenyl)(pyrrolidin-1-yl)methanone]",0.388 µM
12,"O=C(c1ccc(-c2ccc3c(Nc4ccc5scnc5c4)ccnc3c2)c(F)c1)N1CCCC1 [Compound 242, (4-(4-(benzo[d]thiazol-5-ylamino)quinolin-7-yl)-3-fluorophenyl)(pyrrolidin-1-yl)methanone]",< 1 µM
13,"O=C(c1ccc(-c2ccc3nccc(Nc4ccc5scnc5c4)c3c2)c(F)c1)N1CCOCC1 [Compound 243, (4-(4-(benzo[d]thiazol-5-ylamino)quinolin-6-yl)-3-fluorophenyl)(morpholino)methanone]",< 1 µM
14,"CN(C)C(=O)c1ccc(-c2ccc3nccc(Nc4ccc5scnc5c4)c3c2)c(F)c1 [Compound 245, 4-(4-(benzo[d]thiazol-5-ylamino)quinolin-6-yl)-3-fluoro-N,N-dimethylbenzamide]",< 1 µM
15,"CN(C)C(=O)c1ccc(-c2ccc3c(Nc4ccc5scnc5c4)ccnc3c2)c(F)c1 [Compound 246, 4-(4-(benzo[d]thiazol-5-ylamino)quinolin-7-yl)-3-fluoro-N,N-dimethylbenzamide]",< 1 µM
16,"CC1CCCCN1C(=O)c1ccc(-c2ccc3nccc(Nc4ccc5scnc5c4)c3c2)c(F)c1 (stereo not drawn) [Compound 247, (4-(4-(benzo[d]thiazol-5-ylamino)quinolin-6-yl)-3-fluorophenyl)(2-methylpiperidin-1-yl)methanone]",> 1 µM
17,"CC1CCCCN1C(=O)c1ccc(-c2ccc3c(Nc4ccc5scnc5c4)ccnc3c2)c(F)c1 (stereo not drawn) [Compound 248, (4-(4-(benzo[d]thiazol-5-ylamino)quinolin-7-yl)-3-fluorophenyl)(2-methylpiperidin-1-yl)methanone]",< 1 µM
18,"O=C1CN(Cc2ccc(-c3ccc4nccc(Nc5ccc6sccc6c5)c4c3)c(F)c2)CCN1 [Compound 256, 4-(4-(4-(benzo[b]thiophen-5-ylamino)quinolin-6-yl)-3-fluorobenzyl)piperazin-2-one]",> 10 µM
